Reference: ChEMBL document CHEMBL2440076, “New triarylpyrazoles as broad-spectrum anticancer agents: design, synthesis, and biological evaluation” (Eur J Med Chem, 2013)

What was measured:
Assay type in all cases: functional
[1] = tested on: U-251; test: Growth inhibition of human U251 cells assessed as cell growth at 10^-7 M after 48 hrs by sulforhodamine B assay; conditions: U-251, 48 h, read-out: Activity
[2] = tested on: UACC-62; test: Growth inhibition of human UACC62 cells assessed as cell growth at 10^-6 M after 48 hrs by sulforhodamine B assay; conditions: UACC-62, 48 h, read-out: Activity
[3] = tested on: 786-0; test: Growth inhibition of human 786-0 cells assessed as cell growth at 10^-6 M after 48 hrs by sulforhodamine B assay; conditions: 786-0, 48 h, read-out: Activity
[4] = tested on: ACHN; test: Growth inhibition of human ACHN cells assessed as cell growth at 10^-7 M after 48 hrs by sulforhodamine B assay; conditions: read-out: Activity
[5] = tested on: UO-31; test: Growth inhibition of human UO31 cells assessed as cell growth at 10^-6 M after 48 hrs by sulforhodamine B assay; conditions: UO-31, 48 h, read-out: Activity
[6] = tested on: CCRF-CEM; test: Growth inhibition of human CCRF-CEM cells assessed as cell growth at 10^-6 M after 48 hrs by sulforhodamine B assay; conditions: read-out: Activity
[7] = tested on: OVCAR-3; test: Growth inhibition of human OVCAR3 cells assessed as cell growth at 10^-5 M after 48 hrs by sulforhodamine B assay; conditions: OVCAR-3, 48 h, read-out: Activity
[8] = tested on: SNB-19; test: Growth inhibition of human SNB19 cells assessed as cell growth at 10^-7 M after 48 hrs by sulforhodamine B assay; conditions: SNB-19, 48 h, read-out: Activity
[9] = tested on: SK-MEL-5; test: Growth inhibition of human SK-MEL-5 cells assessed as cell growth at 10^-8 M after 48 hrs by sulforhodamine B assay; conditions: SK-MEL-5, 48 h, read-out: Activity
[10] = tested on: CAKI-1; test: Growth inhibition of human CAKI-1 cells assessed as cell growth at 10^-7 M after 48 hrs by sulforhodamine B assay; conditions: CAKI-1, 48 h, read-out: Activity
[11] = tested on: CAKI-1; test: Growth inhibition of human CAKI-1 cells assessed as cell growth at 10^-6 M after 48 hrs by sulforhodamine B assay; conditions: CAKI-1, 48 h, read-out: Activity
[12] = tested on: MCF7; test: Growth inhibition of human MCF7 cells assessed as cell growth at 10^-4 M after 48 hrs by sulforhodamine B assay; conditions: MCF7, 48 h, read-out: Activity
[13] = Growth inhibition of human HCC2998 cells assessed as cell growth at 10^-7 M after 48 hrs by sulforhodamine B assay; conditions: HCC 2998, 48 h, read-out: Activity
[14] = tested on: 786-0; test: Growth inhibition of human 786-0 cells assessed as cell growth at 10^-8 M after 48 hrs by sulforhodamine B assay; conditions: 786-0, 48 h, read-out: Activity
[15] = tested on: COLO 205; test: Growth inhibition of human COLO205 cells assessed as cell growth at 10^-4 M after 48 hrs by sulforhodamine B assay; conditions: COLO 205, 48 h, read-out: Activity
[16] = tested on: HOP-92; test: Growth inhibition of human HOP92 cells assessed as cell growth at 10^-8 M after 48 hrs by sulforhodamine B assay; conditions: HOP-92, 48 h, read-out: Activity
[17] = tested on: IGROV-1; test: Growth inhibition of human IGROV1 cells assessed as cell growth at 10^-6 M after 48 hrs by sulforhodamine B assay; conditions: IGROV-1, 48 h, read-out: Activity
[18] = tested on: SW-620; test: Growth inhibition of human SW620 cells assessed as cell growth at 10^-6 M after 48 hrs by sulforhodamine B assay; conditions: SW-620, 48 h, read-out: Activity
[19] = tested on: SF-539; test: Growth inhibition of human SF539 cells assessed as cell growth at 10^-5 M after 48 hrs by sulforhodamine B assay; conditions: SF-539, 48 h, read-out: Activity
[20] = tested on: OVCAR-3; test: Growth inhibition of human OVCAR3 cells assessed as cell growth at 10^-4 M after 48 hrs by sulforhodamine B assay; conditions: OVCAR-3, 48 h, read-out: Activity
[21] = tested on: COLO 205; test: Growth inhibition of human COLO205 cells assessed as cell growth at 10^-6 M after 48 hrs by sulforhodamine B assay; conditions: COLO 205, 48 h, read-out: Activity
[22] = tested on: HOP-92; test: Growth inhibition of human HOP92 cells assessed as cell growth at 10^-4 M after 48 hrs by sulforhodamine B assay; conditions: HOP-92, 48 h, read-out: Activity
[23] = tested on: NCI-H322M; test: Growth inhibition of human NCI-H322M cells assessed as cell growth at 10^-7 M after 48 hrs by sulforhodamine B assay; conditions: read-out: Activity
[24] = tested on: OVCAR-4; test: Growth inhibition of human OVCAR4 cells assessed as cell growth at 10^-8 M after 48 hrs by sulforhodamine B assay; conditions: OVCAR-4, 48 h, read-out: Activity
[25] = tested on: UO-31; test: Growth inhibition of human UO31 cells assessed as cell growth at 10^-4 M after 48 hrs by sulforhodamine B assay; conditions: UO-31, 48 h, read-out: Activity
[26] = tested on: CCRF-CEM; test: Growth inhibition of human CCRF-CEM cells assessed as cell growth at 10^-7 M after 48 hrs by sulforhodamine B assay; conditions: read-out: Activity
[27] = tested on: MDA-MB-435; test: Growth inhibition of human MDA-MB-435 cells assessed as cell growth at 10^-6 M after 48 hrs by sulforhodamine B assay; conditions: MDA-MB-435, 48 h, read-out: Activity
[28] = tested on: MDA-MB-468; test: Growth inhibition of human MDA-MB-468 cells assessed as cell growth at 10^-4 M after 48 hrs by sulforhodamine B assay; conditions: MDA-MB-468, 48 h, read-out: Activity
[29] = Growth inhibition of human NCI-ADR-RES cells assessed as cell growth at 10^-8 M after 48 hrs by sulforhodamine B assay; conditions: read-out: Activity
[30] = tested on: PC-3; test: Growth inhibition of human PC3 cells assessed as cell growth at 10^-5 M after 48 hrs by sulforhodamine B assay; conditions: PC-3, 48 h, read-out: Activity
[31] = tested on: LOX IMVI; test: Growth inhibition of human LOXIMVI cells assessed as cell growth at 10^-4 M after 48 hrs by sulforhodamine B assay; conditions: read-out: Activity
[32] = tested on: 786-0; test: Growth inhibition of human 786-0 cells assessed as cell growth at 10^-4 M after 48 hrs by sulforhodamine B assay; conditions: 786-0, 48 h, read-out: Activity
[33] = tested on: RPMI-8226; test: Growth inhibition of human RPMI8226 cells assessed as cell growth at 10^-5 M after 48 hrs by sulforhodamine B assay; conditions: RPMI-8226, 48 h, read-out: Activity
[34] = tested on: OVCAR-4; test: Growth inhibition of human OVCAR4 cells assessed as cell growth […] after 48 hrs by sulforhodamine B assay; conditions: OVCAR-4, 48 h, read-out: Activity
[35] = tested on: IGROV-1; test: Growth inhibition of human IGROV1 cells assessed as cell growth at 10^-5 M after 48 hrs by sulforhodamine B assay; conditions: IGROV-1, 48 h, read-out: Activity
[36] = tested on: RPMI-8226; test: Growth inhibition of human RPMI8226 cells assessed as cell growth at 10^-8 M after 48 hrs by sulforhodamine B assay; conditions: RPMI-8226, 48 h, read-out: Activity
[37] = tested on: HCT-116; test: Growth inhibition of human HCT116 cells assessed as cell growth at 10^-5 M after 48 hrs by sulforhodamine B assay; conditions: HCT-116, 48 h, read-out: Activity
[38] = tested on: OVCAR-3; test: Growth inhibition of human OVCAR3 cells assessed as cell growth at 10^-8 M after 48 hrs by sulforhodamine B assay; conditions: OVCAR-3, 48 h, read-out: Activity
[39] = tested on: ACHN; test: Growth inhibition of human ACHN cells assessed as cell growth at 10^-6 M after 48 hrs by sulforhodamine B assay; conditions: read-out: Activity

Row | Structure (SMILES) | growth at 0.1 µM [1] | growth at 1 µM [2] | growth at 1 µM [3] | growth at 0.1 µM [4] | growth at 1 µM [5] | growth at 1 µM [6] | growth at 10 µM [7] | growth at 0.1 µM [8] | growth at 0.01 µM [9] | growth at 0.1 µM [10] | growth at 1 µM [11] | growth at 100 µM [12] | growth at 0.1 µM [13] | growth at 0.01 µM [14] | growth at 100 µM [15] | growth at 0.01 µM [16] | growth at 1 µM [17] | growth at 1 µM [18] | growth at 10 µM [19] | growth at 100 µM [20] | further results
1 | COc1cc(-c2nn(-c3cccc(NC(=O)c4ccccc4)c3)cc2-c2ccncc2)ccc1Cl | 98% | 41% | 56% | 95% | 42% | 27% | 2% | 97% | 97% | 99% | 52% | 7% | 100% | 93% | -54% | 93% | 35% | 35% | -25% | -51% | growth at 1 µM [21]: 32%; growth at 100 µM [22]: -15%; growth at 0.1 µM [23]: 85%; growth at 0.01 µM [24]: 93%; growth at 100 µM [25]: 24%; growth at 0.1 µM [26]: 101%; growth at 1 µM [27]: -28%; growth at 100 µM [28]: -27%; growth at 0.01 µM [29]: 98%; growth at 10 µM [30]: 13%; growth at 100 µM [31]: 7%; growth at 100 µM [32]: 18%; growth at 10 µM [33]: 10%; growth at 100 µM [34]: 30%; growth at 10 µM [35]: 28%; growth at 0.01 µM [36]: 102%; growth at 10 µM [37]: 17%; growth at 0.01 µM [38]: 103%; growth at 1 µM [39]: 44%
2 | COc1cc(-c2nn(-c3cccc(NC(=O)c4ccc(N5CCOCC5)c(C(F)(F)F)c4)c3)cc2-c2ccncc2)ccc1Cl | 88% | 42% | 45% | 83% | 33% | 12% | -36% | 81% | 95% | 87% | 21% | 8% | 92% | 98% | -75% | 70% | 33% | 36% | -54% | -33% | growth at 1 µM [21]: 5%; growth at 100 µM [22]: -30%; growth at 0.1 µM [23]: 100%; growth at 0.01 µM [24]: 97%; growth at 100 µM [25]: -13%; growth at 0.1 µM [26]: 73%; growth at 1 µM [27]: -33%; growth at 100 µM [28]: -53%; growth at 0.01 µM [29]: 102%; growth at 10 µM [30]: 1%; growth at 100 µM [31]: -34%; growth at 100 µM [32]: 3%; growth at 10 µM [33]: 6%; growth at 100 µM [34]: 18%; growth at 10 µM [35]: -7%; growth at 0.01 µM [36]: 102%; growth at 10 µM [37]: 8%; growth at 0.01 µM [38]: 110%; growth at 1 µM [39]: 39%
